No end group written: not given here.

Assay [1] deals with T1, glycosylated human LCAT protein (Homo sapiens, UniProt P04180).
T1 construct: purchased Sino Biological Inc., Beijing, China; host or cells: human cells
T1 sequence (P04180 25-440): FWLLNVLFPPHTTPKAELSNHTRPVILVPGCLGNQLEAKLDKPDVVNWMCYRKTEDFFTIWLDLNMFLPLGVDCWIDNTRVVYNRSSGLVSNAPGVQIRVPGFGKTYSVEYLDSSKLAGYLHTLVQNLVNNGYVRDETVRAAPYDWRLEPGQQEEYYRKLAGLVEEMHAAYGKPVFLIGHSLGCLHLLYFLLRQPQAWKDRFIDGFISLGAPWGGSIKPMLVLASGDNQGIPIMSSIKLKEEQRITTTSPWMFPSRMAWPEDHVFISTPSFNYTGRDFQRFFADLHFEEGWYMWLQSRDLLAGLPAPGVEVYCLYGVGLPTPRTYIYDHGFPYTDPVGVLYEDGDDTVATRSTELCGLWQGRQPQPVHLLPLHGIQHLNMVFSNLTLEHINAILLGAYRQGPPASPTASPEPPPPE
The experiment in a line: MP-SPR binding of LCAT to immobilised biotin-labelled apoA-I-derived peptides. Particulars: N-terminal biotin-peptide on streptavidin-coated sensor, LCAT 156-5,000 nM serial injections of 15 min, 10 μl/min, buffer A pH 7.4, 293 K, Langmuir fit. How it is done:
POPC dissolved in chloroform (25 mg/ml) was obtained from Avanti Polar Lipids (Alabaster, AL). Calcium chloride, HEPES, CHAPS, sodium chloride, EDTA, sodium azide, and potassium dihydrogen phosphate were obtained from Merck Sigma-Aldrich (Darmstadt, Germany). Potassium chloride was obtained from Honeywell Riedel de Haën (Seelz, Germany); disodium hydrogen phosphate was obtained from Fisher Scientific (Hampton, NH). Peptides and N-terminal biotin-labeled peptides were synthesized by Peptide Protein Research Ltd., Hampshire, UK and had the following amino acid sequences: i) 122-142, […]; ii) 135-155, […]; iii) 150-170, […]; iv) 150-170-Y166F, […]; and v) 185-205, […]. Lyophilized glycosylated human LCAT protein (Sino Biological Inc., Beijing, China; a recombinant protein produced in human cells) was reconstituted with 400 μl of ultrapure sterile water to yield LCAT at 5 μM in PBS (manufacturer specifications). Ultrapure water used for preparation of the buffer and in all measurements was prepared with a Milli-Q purification system, having a resistivity of 18 MΩ·cm and TOC level of <5 ppm. The following buffers were used: 20 mM PBS, 1 mM EDTA, 1 mM Na azide (pH 7.4) (buffer A); and 20 mM HEPES and 150 mM NaCl (pH 7.4) (buffer B).
Measurements were performed with a multi-parameter SPR Navi™ 200 (BioNavis Ltd., Tampere, Finland) instrument. The setup was equipped with two incident laser wavelengths, 670 nm and 785 nm, two independent flow channels, inlet tubing and outlet (waste) tubing, and an autosampler. Both of the flow channels were measured simultaneously with 670 nm and 785 nm incident light. The measurement temperature was kept constant at 293° K. Biotin-coated SPR sensors (Bionavis Ltd.) were placed in the flow-cell. The flow rates used for the streptavidin interaction with biotin, biotin-peptides with streptavidin, and for LCAT interaction with immobilized peptides were 10 μl/min. SPR spectra were recorded after introduction of buffer A into the flow-cell for 10–30 min until a stable baseline was achieved, after which the surface was fully saturated with streptavidin during a 10 min serial injection at 1.9 μM to saturate the SPR sensor. It was observed that after 5 min the SPR sensor was fully coated with streptavidin; therefore, the method was adapted to 5 min. In the second phase of the measurement, in DMSO solubilized biotin-peptides with a final concentration of 100 μM were injected in parallel into both flow channels for 7 min at […] to cover the SPR sensor fully, i.e., until all streptavidin bindings sites were fully occupied. Parallel injections ensured that two peptides were analyzed simultaneously. Increasing concentrations of LCAT were then injected into both channels via serial injection, to ensure the lowest variation of LCAT injection for 15 min at increasing concentrations (156, 313, 625, 1250, 2,500, and 5,000 nM) to determine the binding constant of the LCAT-peptide complexes. The data was fitted in OriginPro (v. 8.6, OriginLab Corp., Northampton, MA) according to the Langmuir model to obtain the dissociation constants (Kd) and the responses of saturated binding (Rmax): R=Rmax/1+Kd/c
where R is the final response after each injection and c is the concentration of LCAT in each injection.
To also elucidate the specificity of different peptide regions against LCAT, we carried out MP-SPR experiments to determine dissociation constants (Kd) for the LCAT-peptide complexes. […]
(In general: SPR reads the build-up and loss of mass on a sensor chip optically.)

Assay [2] can be described thus: QCM binding of LCAT, peptides or LCAT plus peptide to a POPC supported lipid bilayer. Particulars: POPC SLB, LCAT 37.5 nM in buffer A, without apoA-I or peptide. How it is done: Prior to the QCM measurements, the PBS buffer formed after reconstitution of LCAT was exchanged for buffer A due to the extremely high sensitivity of the QCM method to slight differences in the ionic strength of the background buffer. The LCAT solution was placed in an Amicon Ultra-0.5 10K centrifugal filter device (Merck Millipore Ltd., Tullagreen Carrigtohill, Ireland) and equal volumes of buffer A were filtered through 10 times at 14,000 g, after which 400 μl of buffer A were added to fully recover LCAT at 5 μM. The peptides were dissolved into buffer A at a final concentration of 100 μM. An impedance-based QCM instrument (KSV Instruments Ltd., Helsinki, Finland) was used for the measurements. The measurement temperature was kept constant at 293° K. Before measurements, silica-coated QCM sensors (Q-Sense Inc./BiolinScientific, Västra Frölunda, Sweden) were first flushed with 70% ethanol and ultrapure water, dried under nitrogen flow, and finally oxygen plasma treated (PDC-002; Harrick Plasma, Ithaca, NY) for 5 min at 29.6 W and 133-173 Pa. Samples were injected into the measurement chamber with a peristaltic pump system (Ismatec/Cole-Parmer GmbH, Wertheim, Germany). […] Neither LCAT nor peptides induced changes in viscoelastic properties of the bilayer, which was seen as negligible changes in the recorded energy dissipation. […]

For assay [3] the following is noted: LCAT with small unilamellar vesicles in the absence of apolipoproteins; cited from earlier work. The text has this:
To assess the possibility of the second hypothesis, we calculated the binding free-energies for LCAT in open and closed states. As shown by the PMF profiles in Fig. 5A, the lid-open state (ΔGwater→lipid = −28 ± 1 kJ/mol) is not able to bind so strongly to lipids when compared with the lid-closed state (ΔGwater→lipid = −34 ± 1 kJ/mol), although the previous findings indicated a deeper lipid interaction for the open state (Fig. 3B). The value for the closed state is well in agreement with existing experimentally determined dissociation constants giving binding a free-energy value of −36 kJ/mol f ...

Usually Kd stands for the concentration at which binding is half-saturated. Lower therefore signals higher affinity. With DRARAHVDALRTHLAPYSDEL [150-170], the Kd in assay [1] worked out at 0.29 µM.

As to HELQEKLSPLGEEMRDRARAH [135-155], in assay [1], the dissociation constant (Kd) was determined as 0.819 µM.

As for “GGARLAEYHAKATEHLSTLSE [185-205, reference compound]”, binding in assay [1] was put at a Kd of 4.69 µM.

In the case of LRAELQEGARQKLHELQEKLS [122-142], binding in assay [1] was put at a Kd of 1.03 µM.

As for “lecithin:cholesterol acyltransferase [LCAT]”, in assay [2], the “Binding of LCAT alone to the POPC membrane” value is given as “binds to the POPC membrane without apoA-I”. The “Binding free-energy from experimentally determined dissociation constants” value in assay [3] is -8.6 kcal/mol.

As to DRARAHVDALRTHLAPFSDEL [150-170-Y166F], binding in assay [1] was put at a Kd of 1.84 µM. This counts as single-digit micromolar.

Values taken from PMC5880497, “Interaction of lecithin:cholesterol acyltransferase with lipid surfaces and apolipoprotein A-I-derived peptides” (Journal of Lipid Research, 2018).
